Source: publication PMC8480901 (PLoS ONE, 2021)
Where “and” joins values, the source holds several entries; their conditions need not be identical. Identical values can stand only once.

Test system: J774.2 mouse macrophages
Experiment: LPS-induced cytokine and chemokine levels in J774.2 mouse macrophage cell supernatant (ELISA)
Type: cell-based
Conditions: LPS; for CCl2, % reduction / CCl2, Mean / GM-CSF % reduction / GM-CSF Mean / IL-1β % reduction / IL-1β Mean / IL-6 % reduction / IL-6 Mean / TNF-α % reduction / TNF-α Mean / CCl2 / CXCL1 / GM-CSF / IL-1β / IL-6 / TNF-α: J774.2 supernatant; for CCl2 / CXCL1 / GM-CSF / IL-1β / IL-6 / TNF-α / CXCL2 / MMP9: individual replicate; for CXCL2 / MMP9: J774.2 cells

Question: `CC[C@H]1OC(=O)[C@H](C)[C@@H](O[C@H]2C[C@@](C)(OC)[C@@H](O)[C@H](C)O2)[C@H](C)[C@@H](O[C@@H]2O[C@H](C)C[C@H](N(C)C)[C@H]2O)[C@](C)(O)C[C@@H](C)CN(C)[C@H](C)[C@@H](O)[C@]1(C)O` [Azithromycin] was tested. Which CCl2, % reduction (1 µM) did it give?
Answer: 17%

Question: What about the “CCl2, Mean” value (1 µM) of the same molecule?
Answer: 29990 pg/mL

Question: What about the GM-CSF % reduction (1 µM) of the same molecule?
Answer: 67%

Question: And the “GM-CSF Mean” value (1 µM)?
Answer: 467 pg/mL

Question: And the IL-1β % reduction (1 µM)?
Answer: 4.32%

Question: What about the “IL-1β Mean” value (1 µM) of the same molecule?
Answer: 183 pg/mL

Question: And the IL-6 % reduction (1 µM)?
Answer: 10%

Question: What about the “IL-6 Mean” value (1 µM) of the same molecule?
Answer: 69772 pg/mL

Question: And the TNF-α % reduction (1 µM)?
Answer: -11%

Question: What about the “TNF-α Mean” value (1 µM) of the same molecule?
Answer: 1515 pg/mL

Question: What about the CCl2 (1 µM) of the same molecule?
Answer: 27895.3 pg/mL and 32084.6 pg/mL

Question: What about the CXCL1 (1 µM) of the same molecule?
Answer: 29.3 pg/mL and 31.2 pg/mL

Question: And the GM-CSF (1 µM)?
Answer: 431.5 pg/mL and 502.0 pg/mL

Question: What about the IL-1β (1 µM) of the same molecule?
Answer: 188.28 pg/mL and 176.943 pg/mL

Question: And the IL-6 (1 µM)?
Answer: 65142 pg/mL and 74401 pg/mL

Question: And the TNF-α (1 µM)?
Answer: 1479.7 pg/mL and 1551.1 pg/mL

Question: What about the CCl2, % reduction (3 µM) of the same molecule?
Answer: 4%

Question: What about the “CCl2, Mean” value (3 µM) of the same molecule?
Answer: 34644 pg/mL

Question: And the GM-CSF % reduction (3 µM)?
Answer: 57%

Question: And the “GM-CSF Mean” value (3 µM)?
Answer: 606 pg/mL

Question: What about the IL-1β % reduction (3 µM) of the same molecule?
Answer: -7%

Question: What about the “IL-1β Mean” value (3 µM) of the same molecule?
Answer: 204 pg/mL

Question: And the IL-6 % reduction (3 µM)?
Answer: 7%

Question: What about the “IL-6 Mean” value (3 µM) of the same molecule?
Answer: 71996 pg/mL

Question: And the TNF-α % reduction (3 µM)?
Answer: -31%

Question: What about the “TNF-α Mean” value (3 µM) of the same molecule?
Answer: 1780 pg/mL

Question: And the CCl2 (3 µM)?
Answer: 38396.7 pg/mL and 30890.3 pg/mL

Question: And the CXCL1 (3 µM)?
Answer: 37.9 pg/mL and 28.5 pg/mL

Question: And the GM-CSF (3 µM)?
Answer: 728.6 pg/mL and 484.1 pg/mL

Question: What about the IL-1β (3 µM) of the same molecule?
Answer: 204.824 pg/mL and 203.959 pg/mL

Question: What about the IL-6 (3 µM) of the same molecule?
Answer: 78966 pg/mL and 65026 pg/mL

Question: What about the TNF-α (3 µM) of the same molecule?
Answer: 1995.5 pg/mL and 1564.5 pg/mL

Question: And the CCl2, % reduction (10 µM)?
Answer: 9%

Question: What about the “CCl2, Mean” value (10 µM) of the same molecule?
Answer: 32971 pg/mL

Question: What about the GM-CSF % reduction (10 µM) of the same molecule?
Answer: 52%

Question: What about the “GM-CSF Mean” value (10 µM) of the same molecule?
Answer: 674 pg/mL

Question: And the IL-1β % reduction (10 µM)?
Answer: 1.15%

Question: What about the “IL-1β Mean” value (10 µM) of the same molecule?
Answer: 189 pg/mL

Question: And the IL-6 % reduction (10 µM)?
Answer: 15%

Question: What about the “IL-6 Mean” value (10 µM) of the same molecule?
Answer: 65894 pg/mL

Question: What about the TNF-α % reduction (10 µM) of the same molecule?
Answer: -25%

Question: And the “TNF-α Mean” value (10 µM)?
Answer: 1709 pg/mL

Question: And the CCl2 (10 µM)?
Answer: 34921.6 pg/mL and 31021.1 pg/mL

Question: What about the CXCL1 (10 µM) of the same molecule?
Answer: 42.9 pg/mL and 34.6 pg/mL

Question: What about the GM-CSF (10 µM) of the same molecule?
Answer: 752.0 pg/mL and 595.8 pg/mL

Question: And the IL-1β (10 µM)?
Answer: 185.693 pg/mL and 191.532 pg/mL

Question: And the IL-6 (10 µM)?
Answer: 62169 pg/mL and 69619 pg/mL

Question: And the TNF-α (10 µM)?
Answer: 1793.0 pg/mL and 1624.6 pg/mL

Question: What about the CCl2, % reduction (30 µM) of the same molecule?
Answer: -14%

Question: And the “CCl2, Mean” value (30 µM)?
Answer: 40819 pg/mL

Question: What about the GM-CSF % reduction (30 µM) of the same molecule?
Answer: 66%

Question: And the “GM-CSF Mean” value (30 µM)?
Answer: 483 pg/mL

Question: What about the IL-1β % reduction (30 µM) of the same molecule?
Answer: 28%

Question: What about the “IL-1β Mean” value (30 µM) of the same molecule?
Answer: 138 pg/mL

Question: And the IL-6 % reduction (30 µM)?
Answer: 43%

Question: What about the “IL-6 Mean” value (30 µM) of the same molecule?
Answer: 44169 pg/mL

Question: And the TNF-α % reduction (30 µM)?
Answer: -15%

Question: What about the “TNF-α Mean” value (30 µM) of the same molecule?
Answer: 1566 pg/mL

Question: What about the CCl2 (30 µM) of the same molecule?
Answer: 40980.3 pg/mL and 40657.2 pg/mL

Question: What about the CXCL1 (30 µM) of the same molecule?
Answer: 68.6 pg/mL and 51.5 pg/mL

Question: And the GM-CSF (30 µM)?
Answer: 510.8 pg/mL and 455.1 pg/mL

Question: What about the IL-1β (30 µM) of the same molecule?
Answer: 129.379 pg/mL and 146.376 pg/mL

Question: And the IL-6 (30 µM)?
Answer: 40788 pg/mL and 47550 pg/mL

Question: What about the TNF-α (30 µM) of the same molecule?
Answer: 1637.1 pg/mL and 1494.0 pg/mL

Question: And the CCl2, % reduction (100 µM)?
Answer: 12%

Question: And the “CCl2, Mean” value (100 µM)?
Answer: 31879 pg/mL

Question: What about the GM-CSF % reduction (100 µM) of the same molecule?
Answer: 76%

Question: What about the “GM-CSF Mean” value (100 µM) of the same molecule?
Answer: 343 pg/mL

Question: What about the IL-1β % reduction (100 µM) of the same molecule?
Answer: 36%

Question: What about the “IL-1β Mean” value (100 µM) of the same molecule?
Answer: 122 pg/mL

Question: And the IL-6 % reduction (100 µM)?
Answer: 69%

Question: What about the “IL-6 Mean” value (100 µM) of the same molecule?
Answer: 24231 pg/mL

Question: And the TNF-α % reduction (100 µM)?
Answer: -21%

Question: And the “TNF-α Mean” value (100 µM)?
Answer: 1656 pg/mL

Question: What about the CCl2 (100 µM) of the same molecule?
Answer: 33824.3 pg/mL and 29933.1 pg/mL

Question: What about the CXCL1 (100 µM) of the same molecule?
Answer: 66.2 pg/mL and 50.6 pg/mL

Question: And the GM-CSF (100 µM)?
Answer: 399.7 pg/mL and 287.0 pg/mL

Question: And the IL-1β (100 µM)?
Answer: 120.112 pg/mL and 124.217 pg/mL

Question: And the IL-6 (100 µM)?
Answer: 25573 pg/mL and 22888 pg/mL

Question: What about the TNF-α (100 µM) of the same molecule?
Answer: 1818.4 pg/mL and 1493.5 pg/mL

Question: What about the “CXCL2” value (compound 0.03 µM) of the same molecule?
Answer: 14544.8 pg/mL and 27111.4 pg/mL

Question: What about the “MMP9” value (compound 0.03 µM) of the same molecule?
Answer: 1137.13 pg/mL and 1348.53 pg/mL

Question: What about the “CXCL2” value (compound 0.1 µM) of the same molecule?
Answer: 14262.2 pg/mL and 26368.8 pg/mL

Question: What about the “MMP9” value (compound 0.1 µM) of the same molecule?
Answer: 973.296 pg/mL and 1170.61 pg/mL

Question: What about the “CXCL2” value (compound 0.3 µM) of the same molecule?
Answer: 19194.7 pg/mL and 27003.7 pg/mL

Question: What about the “MMP9” value (compound 0.3 µM) of the same molecule?
Answer: 981.336 pg/mL and 1072.64 pg/mL

Question: And the “CXCL2” value (compound 1 µM)?
Answer: 28271.6 pg/mL and 28293.6 pg/mL

Question: What about the “MMP9” value (compound 1 µM) of the same molecule?
Answer: 1115.62 pg/mL and 1010.37 pg/mL

Question: What about the “CXCL2” value (compound 3 µM) of the same molecule?
Answer: 17053.3 pg/mL and 14683.3 pg/mL

Question: And the “MMP9” value (compound 3 µM)?
Answer: 1120.5 pg/mL

Question: And the “CXCL2” value (compound 10 µM)?
Answer: 20008.2 pg/mL and 16019.2 pg/mL

Question: And the “MMP9” value (compound 10 µM)?
Answer: 846.885 pg/mL and 873.775 pg/mL

Question: What about the “CXCL2” value (compound 30 µM) of the same molecule?
Answer: 23084.4 pg/mL and 24875.0 pg/mL

Question: What about the “MMP9” value (compound 30 µM) of the same molecule?
Answer: 575.954 pg/mL and 501.629 pg/mL

Question: What about the “CXCL2” value (compound 100 µM) of the same molecule?
Answer: 19137.4 pg/mL and 23402.0 pg/mL

Question: What about the “MMP9” value (compound 100 µM) of the same molecule?
Answer: 340.616 pg/mL and 323.365 pg/mL
